Among the data in patent US11155517B2, “4-substituted phenylamine derivatives and their use to protect crops by fighting undesired phytopathogenic micoorganisms” (PI INDUSTRIES LTD., priority 2016, dated 2021) are inhibition of growth values, retold here.

Type in all cases: cell-based
For assay [1], the system named is Fusarium culmorum. Kind of assay: Fusarium culmorum (foot rot of cereals) in vitro test, radial growth on Potato Dextrose Agar. The note with it: Fusarium culmorum, 168 h, read-out: % control compared to the untreated check (radial growth).
The test system of assay [2] is Colletotrichum capsici. Kind of assay: Colletotrichum capsici (anthracnose) in vitro test, radial growth on Potato Dextrose Agar. The note with it: Colletotrichum truncatum, 168 h; 300 ppm; seven days, 25° C.; read-out: % control compared to the untreated check (radial growth).
Assay [3] relates to Rhizoctonia solani. Kind of assay: Rhizoctonia solani (rice sheath blight/potato black scurf) in vitro test, radial growth on Potato Dextrose Agar. To be noted: 168 h, 300 ppm, seven days, 25° C., read-out: % control compared to the untreated check (radial growth).
Assay [4] deals with Alternaria solani. Kind of assay: Alternaria solani (early blight of tomato/potato) in vitro test, radial growth on Potato Dextrose Agar. The note with it: 168 h, 300 ppm, seven days, 25° C., read-out: % control compared to the untreated check (radial growth).
The subject of assay [5] is Septoria lycopersici. Kind of assay: Septoria lycopersici (leaf spot of tomato) in vitro test, radial growth on Potato Dextrose Agar. To be noted: 168 h, seven days, 25° C., read-out: % control compared to the untreated check (radial growth).
In assay [6] the test system is Botrytis cinerea. Kind of assay: Botrytis cinerea (gray mold) in vitro test, radial growth on Potato Dextrose Agar. To be noted: 168 h, 300 ppm, seven days, 22° C., read-out: % (control) compared to the untreated check (radial growth).
Assay [7] relates to Pyricularia oryzae. Kind of assay: microbe, parasite or virus in culture. The note with it: 168 h, read-out: % control compared to the untreated check (radial growth).

For the compound `CCN(C)C=Nc1cc(C)c(Cc2ccccc2Cl)cc1F` [Compound 213, N′-(4-(2-chlorobenzyl)-2-fluoro-5-methylphenyl)-N-ethyl-N-methylformimidamide], the inhibition of growth at 300 ppm in assay [1] was 75%; in assay [2] it was above 80%; in assay [3] it was above 80%; in assay [4], above 75%; in assay [5], above 70%; in assay [6], above 80%. Besides, in assay [7], the inhibition of growth at 300 ppm was above 75%.
In the case of `CCN(C)C=Nc1cc(F)c(Cc2ccccc2C)cc1C` [Compound 186, N-ethyl-N′-(5-fluoro-2-methyl-4-(2-methylbenzyl)phenyl)-N-methylformimidamide], the inhibition of growth at 300 ppm was 75% in assay [1]; above 80% in assay [2]; above 80% in assay [3]; above 75% in assay [4]; above 70% in assay [5]; above 80% in assay [6]. For the same compound, in assay [7], the inhibition of growth at 300 ppm is above 75%.
As to `CCN(C)C=Nc1cc(C)c(Cc2c(F)cccc2C(F)(F)F)cc1Cl` [Compound 220, N′-(2-chloro-4-(2-fluoro-6-(trifluoromethyl)benzyl)-5-methylphenyl)-N-ethyl-N-methylformimidamide], the inhibition of growth at 300 ppm was 75% in assay [1]; above 80% in assay [2]; above 80% in assay [3]; above 75% in assay [4]; above 70% in assay [5]; above 80% in assay [6]. Besides, the inhibition of growth at 300 ppm in assay [7] was above 75%.
`CCN(C)C=Nc1cc(Cl)c(Cc2cccc(Cl)c2)cc1C` [Compound 258, N′-(5-chloro-4-(3-chlorobenzyl)-2-methylphenyl)-N-ethyl-N-methylformimidamide]: the inhibition of growth at 300 ppm is 75% in assay [1]; above 80% in assay [2]; above 80% in assay [3]; above 75% in assay [4]; above 70% in assay [5]; above 80% in assay [6]. Further, the inhibition of growth at 300 ppm in assay [7] was above 75%.
`CCN(C)C=Nc1cc(C(F)(F)F)c(Cc2ccc(C)cc2)cc1F` [Compound 225, N-ethyl-N′-(2-fluoro-4-(4-methylbenzyl)-5-(trifluoromethyl)phenyl)-N-methylformimidamide]: the inhibition of growth at 300 ppm in assay [1] was 75%; in assay [2] it was above 80%; in assay [3], above 80%; in assay [4] it was above 75%; in assay [5] it was above 70%; in assay [6] it was above 80%. In assay [7], the inhibition of growth at 300 ppm was above 75%.
For the compound `CCN(C)C=Nc1cc(C)c(Cc2ccc(Cl)c(C)c2)cc1C` [Compound 108, N′-(4-(4-chloro-3-methylbenzyl)-2,5-dimethylphenyl)-N-ethyl-N-methylformimidamide], the inhibition of growth at 300 ppm is 75% in assay [1]; above 80% in assay [2]; above 80% in assay [3]; above 75% in assay [4]; above 70% in assay [5]; above 80% in assay [6]. Moreover, the inhibition of growth at 300 ppm in assay [7] was above 75%.
Consider `CCN(C)C=Nc1cc(C)c(Cc2ccc(F)c(F)c2)cc1C` [Compound 146, N′-(4-(3,4-difluorobenzyl)-2,5-dimethylphenyl)-N-ethyl-N-methylformimidamide], for which the inhibition of growth at 300 ppm was 75% in assay [1]; above 80% in assay [2]; above 80% in assay [3]; above 75% in assay [4]; above 70% in assay [5]; above 80% in assay [6]. In assay [7], the inhibition of growth at 300 ppm was above 75%.
On to `CCN(C)C=Nc1cc(C)c(Cc2cc(F)cc(OC)c2)cc1Cl` [Compound 169, N′-(2-chloro-4-(3-fluoro-5-methoxybenzyl)-5-methylphenyl)-N-ethyl-N-methylformimidamide], for which the inhibition of growth at 300 ppm was 75% in assay [1]; above 80% in assay [2]; above 80% in assay [3]; above 75% in assay [4]; above 70% in assay [5]; above 80% in assay [6]. In assay [7], the inhibition of growth at 300 ppm is above 75%.
`Cc1cc(N=CNC(C)C)c(C)cc1Cc1ccccc1Cl` [Compound 67, N′-(4-(2-chlorobenzyl)-2,5-dimethylphenyl)-N-isopropylformimidamide]: the inhibition of growth at 300 ppm was 75% in assay [1]; above 80% in assay [2]; above 80% in assay [3]; above 75% in assay [4]; above 70% in assay [5]; above 80% in assay [6]. Besides, the inhibition of growth at 300 ppm in assay [7] is above 75%.
In the case of `CCN(C)C=Nc1cc(F)c(Cc2cccc(C(F)(F)F)c2)cc1C` [Compound 196, N-ethyl-N′-(5-fluoro-2-methyl-4-(3-(trifluoromethyl)benzyl)phenyl)-N-methylformimidamide], the inhibition of growth at 300 ppm was 75% in assay [1]; above 80% in assay [2]; above 80% in assay [3]; above 75% in assay [4]; above 70% in assay [5]; above 80% in assay [6]. Also, the inhibition of growth at 300 ppm in assay [7] is above 75%.
Consider `CCN(C)C=Nc1cc(C)c(Cc2ccc(F)c(F)c2)cc1Cl` [Compound 138, N′-(2-chloro-4-(3,4-difluorobenzyl)-5-methylphenyl)-N-ethyl-N-methylformimidamide], for which the inhibition of growth at 300 ppm was 75% in assay [1]; above 80% in assay [2]; above 80% in assay [3]; above 75% in assay [4]; above 70% in assay [5]; above 80% in assay [6]. In addition, the inhibition of growth at 300 ppm in assay [7] was above 75%.
Consider `CCN(C)C=Nc1cc(Cl)c(Cc2ccccc2F)cc1C` [Compound 256, N′-(5-chloro-4-(2-fluorobenzyl)-2-methylphenyl)-N-ethyl-N-methylformimidamide], for which the inhibition of growth at 300 ppm is 75% in assay [1]; above 80% in assay [2]; above 80% in assay [3]; above 75% in assay [4]; above 70% in assay [5]; above 80% in assay [6]. In assay [7], the inhibition of growth at 300 ppm was above 75%.
Consider `CCN(C)C=Nc1cc(Cl)c(Cc2cccc(F)c2)cc1C` [Compound 259, N′-(5-chloro-4-(3-fluorobenzyl)-2-methylphenyl)-N-ethyl-N-methylformimidamide], for which the inhibition of growth at 300 ppm is 75% in assay [1]; above 80% in assay [2]; above 80% in assay [3]; above 75% in assay [4]; above 70% in assay [5]; above 80% in assay [6]. For the same compound, in assay [7], the inhibition of growth at 300 ppm is above 75%.
Regarding `CCN(C)C=Nc1cc(C)c(Cc2ccccc2Cl)cc1C1CC1` [Compound 223, N′-(4-(2-chlorobenzyl)-2-cyclopropyl-5-methylphenyl)-N-ethyl-N-methylformimidamide], the inhibition of growth at 300 ppm in assay [1] was 75%; in assay [2], above 80%; in assay [3], above 80%; in assay [4], above 75%; in assay [5], above 70%; in assay [6], above 80%. Also, the inhibition of growth at 300 ppm in assay [7] was above 75%.
In the case of `CCN(C)C=Nc1cc(Cl)c(Cc2ccc(C)cc2)cc1C` [Compound 261, N′-(5-chloro-2-methyl-4-(4-methylbenzyl)phenyl)-N-ethyl-N-methylformimidamide], the inhibition of growth at 300 ppm in assay [1] was 75%; in assay [2] it was above 80%; in assay [3] it was above 80%; in assay [4], above 75%; in assay [5] it was above 70%; in assay [6], above 80%. Moreover, the inhibition of growth at 300 ppm in assay [7] was above 75%.
For `CCN(C)C=Nc1cc(C)c(Cc2ccccc2Br)cc1C` [Compound 154, N′-(4-(2-bromobenzyl)-2,5-dimethylphenyl)-N-ethyl-N-methylformimidamide], the inhibition of growth at 300 ppm in assay [1] is 75%; in assay [2] it was above 80%; in assay [3], above 80%; in assay [4], above 75%; in assay [5], above 70%; in assay [6], above 80%. In addition, the inhibition of growth at 300 ppm in assay [7] is above 75%.
`C=CCN(C)C=Nc1cc(C)c(Cc2ccccc2F)cc1C` [Compound 83, N-allyl-N′-(4-(2-fluorobenzyl)-2,5-dimethylphenyl)-N-methylformimidamide]: the inhibition of growth at 300 ppm in assay [1] was 75%; in assay [2], above 80%; in assay [3], above 80%; in assay [4] it was above 75%; in assay [5], above 70%; in assay [6], above 80%. Further, the inhibition of growth at 300 ppm in assay [7] is above 75%.
